Reference: PMC10604720, “Unraveling the Mechanism of Epichaperome Modulation by Zelavespib: Biochemical Insights on Target Occupancy and Extended Residence Time at the Site of Action” (Biomedicines, 2023)

System: epichaperome
Assay: Target occupancy by zelavespib using tracer [131I]-PU-AD and gamma counting in MDA-MB-468 tumors
Type: in vivo, mouse
Details: for target occupancy: MDA-MB-468 tumor, 50 mg/kg; for target occupancy, accounting for background signal: background radioactivity of normal tissues (heart) subtracted
Description: MDA-MB-468 (RRID:CVCL_0419) tumor xenografts were established on the forelimbs of female athymic nude mice (Hsd:Athymic Nude-Foxn1^nu; Envigo; 5 weeks old; RRID:MGI:5652489) by subcutaneous (s.c.) injection of 7 × 10^6 cells in a 300 µL cell suspension of a 1:1 v/v mixture of PBS with reconstituted basement membrane (BD Matrigel^TM, Collaborative Biomedical Products Inc., Bedford, MA, USA). Tumor progression was monitored using vernier calipers. For biodistribution studies, female athymic nude mice with MDA-MB-468 tumor xenografts (~200–300 mm^3) on the forelimbs were injected intravenously in the tail vein with zelavespib (50 mg/kg (PU-H71.HCl formulated in 10 mM Phosphate Buffer, pH = ~6.4)) at different time points (0 (co-injection), 6, 24, and 48 h) prior to tracer administration. At designated time points post-drug administration, mice were injected intravenously in the tail vein with 0.93–1.1 MBq (25–50 µCi) of [^131I]-PU-AD in 200 µL of 5% ethanol in saline. The activity in the syringe before and after administration was assayed in a dose calibrator (CRC-15R; Capintec, Florham Park, NJ, USA) to determine by difference the actual activity administered to each animal. Animals were euthanized by CO2 asphyxiation at 24 h post-administration of the radiolabeled [^131I]-PU-AD tracer, and organs, including tumor(s), were harvested and weighed. ^131I was measured in a 2480 WIZARD automatic gamma counter (PerkinElmer, Waltham, MA, USA) using a 260–430 keV energy window. Count data were background- and decay-corrected to the time of injection, and the percent injected dose per gram (%ID/g) for each tissue sample was calculated using a measured ^131I calibration factor to convert count rate to activity and the activity was normalized to the activity injected and the weighed mass of the sample to yield the activity concentration in %ID/g.
The drug could be trapped in non-tumor areas (i.e., stroma or necrotic tissue) or be intracellular but not target-bound. To test this notion and determine the percentile target occupied by each of these intratumoral concentrations of zelavespib, we performed studies in which tracer amounts (that is, non-pharmacologically perturbing amounts) of the radiolabeled epichaperome ligand [^131I]-PU-AD (~6 ng/g which is ~1/10,000 of the therapeutic zelavespib amount) were administered to mice intravenously 24 h prior to tumor zelavespib measurements (Figure 2a). The ^131I isotope has a half-life of 8 days, making it suitable for measurements of drugs with an extended tumor retention profile, such as that observed for zelavespib. It emits γ radiation and β particles; thus, γ-counting can be applied to detect and quantify the radioactive signal in tumors and tissues upon mouse sacrifice. Because both zelavespib and [^131I]-PU-AD bind to the same target, the epichaperome, the more zelavespib that is present in the tumor and is target-bound, the lower the radioactivity signal is in the tumor.
Figure 3 Relationship between molar concentration and target engagement in MDA-MB-468 tumor-bearing mice. (a) Tumor molar concentrations of zelavespib experimentally determined by LC–MS/MS upon administration of single-dose 50 mg/kg zelavespib and sacrificing the mice at 30 h, 48 h, and 72 h post-zelavespib administration (n = 5 mice per time-point). Data are presented as means ± s.e.m., n = 5, one-way ANOVA with Dunnett’s post hoc. Controls: PU-24h, mice were injected 50 mg/kg zelavespib, and tumor concentrations of the drug were determined at 24 h post-injection using LC–MS/MS. Vehicle, mice were injected vehicle only. (b) Target engagement by zelavespib was determined by co-injection of zelavespib with a trace amount of [^131I]-PU-AD. Zelavespib was administered 6, 24, and 48 h prior to [^131I]-PU-AD. […]

SMILES: CC(C)NCCCn1c(Sc2cc3c(cc2I)OCO3)nc2c(N)ncnc21 [zelavespib]
- target occupancy (30 h post single 50 mg/kg i.v.): 38.8%
- target occupancy, accounting for background signal (30 h post single 50 mg/kg i.v.): 41.5%
- target occupancy (48 h post single 50 mg/kg i.v.): 24.9%
- target occupancy, accounting for background signal (48 h post single 50 mg/kg i.v.): 22.4%
- target occupancy, accounting for background signal (72 h post single 50 mg/kg i.v.): 3.5%
- remaining intratumoral zelavespib that is target-bound (72 h post-injection): about 50%
